Test results: paper PMC11908749 (Chemistry & Biodiversity, 2025)

Experiments:
Type in all cases: cell-based
[1] = system: U‐251 (human glioblastoma cell line); assay: SRB cytotoxicity, U-251 cells; conditions: read-out: IC50 U‐251, non-linear regression
[2] = system: MCF‐7 (human mammary adenocarcinoma); assay: SRB cytotoxicity, MCF-7 cells; conditions: read-out: IC50 MCF‐7, non-linear regression
[3] = system: SK‐LU‐1 (human lung adenocarcinoma); assay: SRB cytotoxicity, SK-LU-1 cells; conditions: read-out: IC50 SK‐LU‐1, non-linear regression

## curcumin
[1]
  IC50: 20.5 ± 1.7 µM
[2]
  IC50: 18.4 ± 0.9 µM
[3]
  IC50: 12.9 ± 0.7 µM
